These results are taken from patent US20170143009A1, “ANIMAL FEED AND AQUAFEED” (DUPONT NUTRITION BIOSCIENCES APS, priority 2014, published 2017).

Each structure is given as a SMILES string.

For data set [1] the following is noted: pure form; water and lower alcohols; cited from earlier work.
Data set [2] concerns Pacific white shrimp. As to the kind of experiment: 8-week feeding trial, growth performance and feed utilisation. Type of data set: in vivo, Litopennaeus vannamei. The following applies: 8 weeks; for Final individual body weight gain: 5 replicates. The procedure: The feeding experiment (8 weeks) on Pacific white shrimp was conducted at the shrimp farm facilities of Prince of Songkhla University, Pattani Campus in Thailand. The shrimp rearing unit was made up of fiberglass aquarium of 235 L. The parameters to assess the water quality i.e. salinity, dissolved oxygen (DO), temperature and pH were measured daily using standard protocols. There was a weekly monitoring of NH3 and NO2. Siphoning of left-over feed and faeces and exchange of 10% of water was done daily.
Pacific white leg shrimp (Litopennaeus vannamei) were obtained from a standard farm in Pattani province. Shrimp were acclimatized in a concrete pond for 7 days prior to the start of the experiment. It was ensured that the juveniles were not infested with bacteria, parasites and viruses. […] They were sorted and allotted randomly for a particular feed group. 30 shrimps were introduced into each of the 235 L fibreglass aquarium (5 aquariums per feed group). It was confirmed that there was no significant difference in the initial weights of the groups. They were grown in the system for 8 weeks.
Experimental shrimp feeds were used.
In the present study, positive control was based on 9% fish meal whereas negative control with or without betaine products) was based on 4% fish meal as indicated in the feed formulation in table 2.
The experimental feeds were hand fed everyday; four times a day. Feed consumption as well as amount of unconsumed feed were monitored (weighed) daily.
Daily feed was based on feed guide x number of surviving animals, and was predetermined one week in advance, but was adjusted on a daily basis if significant amount of feed remained non eaten or if all feed was consumed, in order to avoid underfeeding or overfeeding. The animals were weighed every 2 weeks—all animals in each of the aquaria were weighed.
The bulk weights of shrimp were recorded from each experimental unit at the start of the feeding period. Weight measurement was examined every two weeks by sampling 10% of white shrimp in each net cage (at week 2, 4, 6, and 8). At the end of the study (8 weeks), all shrimp in each net cage were weighed. The number of survivors was also checked. The determination of weight gain was based on the total biomass in each net cage considering the number of survivors.
Survival (%)=100 (Final shrimp number/Initial shrimp number)
Weight gain, WG (%)=[[(Mean final bodyweight)−(Mean initial body weight)]/Mean initial body weight]×100.
Rate of feed intake (%/BW/day)=Feed intake (g)×100/[((mean final BW+mean initial BW)/2)×((number of final shrimp+number of initial shrimp)/2)×time (days)].
Feed conversion ratio, FCR=Dry feed intake (g)/[Final biomass (g)−Initial biomass (g)+Biomass of the dead shrimp (g)].

Where [3] appears, read: NC feed (4% fish meal) + 0.5% uncoated betaine.
The mark [4] stands for this setting: NC feed (4% fish meal) + 1% uncoated betaine.

As for `C[N+](C)(C)CC(=O)[O-]` [Uncoated Betafin, trimethylglycine], the Solubility entry in data set [1] is “readily soluble in water and lower alcohols”. Also, the entries for the “Final individual body weight gain” value in data set [2] (NC feed (4% fish meal) + 0.5% uncoated betaine (5 kg/tonne of feed)) and in data set [2] (NC feed (4% fish meal) + 1% uncoated betaine (10 kg/tonne of feed)) were 5.58 ± 0.29ab g/shrimp and 6.06 ± 0.82a g/shrimp, respectively. For the same compound, the “FCR (feed conversion ratio)” value in data set [2] (setting [3]) was 1.83 ± 0.09a; in data set [2] (setting [4]) it was 1.85 ± 0.21a. Moreover, the Feed intake is 7.60 ± 0.51b in data set [2] (setting [3]); 8.46 ± 0.48a in data set [2] (setting [4]); “significantly higher than positive control” in data set [2] (NC feed (4% fish meal) + 1% uncoated betaine, listed as betaine). In addition, the Survival was 95.8 ± 4.2abcd % in data set [2] (setting [3]) and 95.0 ± 3.3abcd % in data set [2] (setting [4]).
